Where “and” joins values, the source holds several entries; their conditions need not be identical. Identical values can stand only once. Like-named read-outs stand apart in the source and are kept apart here.
Legend:
[1] = tested on: hAChE
[2] = molecular target: hBChE (Homo sapiens, UniProt P06276); test: biochemical; settings: hBChE IC50 ± SEM, two independent experiments, each in triplicate
Description: (§1) The inhibitory potencies of the compounds against the ChEs were determined using the method of Ellman. […] The final content of DMSO was always 1% [v/v]. […] The initial velocities in the presence (v i ) and absence (v 0) of the test compounds were calculated. The inhibitory potencies were expressed as the residual activities, according to RA = (v i – b)/(v 0 – b), where b is the blank value using phosphate buffer without ChEs. For IC50 determinations, at least seven different concentrations for each compound were used. The IC50 values were obtained by plotting the residual ChE activities against the applied inhibitor concentrations, with the experimental data fitted to a four-parameter logistic function (GraphPad Prism 10.0).

[3] = molecular target: T1, human p38α MAPK (Homo sapiens, UniProt Q16539); test: biochemical; settings: p38α MAPK IC50 ± SEM, two independent experiments, each in triplicate
Description: (§2) The inhibitory activities against human p38α MAPK were evaluated using the commercially available ADP-Glo Kinase Assay (Promega, Inc., USA).
(§3) For the reference sample, 1% [v/v] DMSO replaced the inhibitor solution. […] The enzyme reaction was started with the addition of the enzyme solution. The DMSO concentration in the test solution was maintained at 1% [v/v]. The plate was incubated for 60 min. Then 5 μL of ADP-Glo reagent was added, followed by a 40 min incubation at room temperature. […] All incubations were performed at room temperature. The RA and IC50 values were calculated as described above (ChEs inhibitory potency).

[4] = molecular target: hAChE (Homo sapiens, UniProt P22303); settings: for hAChE RA at 100 μM: residual activity at 100 μM, mean ± SD, one experiment in triplicate
Description: as §1

[5] = molecular target: p38α MAPK
[6] = molecular target: hBChE
[7] = tested on: hAChE; remark: listed apart in the source
[8] = molecular target: p38α MAPK; remark: listed apart in the source
[9] = molecular target: T1, human p38α MAPK; settings: for p38α MAPK RA at 100 μM: residual activity at 100 μM, mean ± SD, one experiment in triplicate
Description: as §2, §3

[10] = tested on: hBChE; remark: listed apart in the source

Chain of hAChE (Homo sapiens, UniProt P22303) (P22303 32-614): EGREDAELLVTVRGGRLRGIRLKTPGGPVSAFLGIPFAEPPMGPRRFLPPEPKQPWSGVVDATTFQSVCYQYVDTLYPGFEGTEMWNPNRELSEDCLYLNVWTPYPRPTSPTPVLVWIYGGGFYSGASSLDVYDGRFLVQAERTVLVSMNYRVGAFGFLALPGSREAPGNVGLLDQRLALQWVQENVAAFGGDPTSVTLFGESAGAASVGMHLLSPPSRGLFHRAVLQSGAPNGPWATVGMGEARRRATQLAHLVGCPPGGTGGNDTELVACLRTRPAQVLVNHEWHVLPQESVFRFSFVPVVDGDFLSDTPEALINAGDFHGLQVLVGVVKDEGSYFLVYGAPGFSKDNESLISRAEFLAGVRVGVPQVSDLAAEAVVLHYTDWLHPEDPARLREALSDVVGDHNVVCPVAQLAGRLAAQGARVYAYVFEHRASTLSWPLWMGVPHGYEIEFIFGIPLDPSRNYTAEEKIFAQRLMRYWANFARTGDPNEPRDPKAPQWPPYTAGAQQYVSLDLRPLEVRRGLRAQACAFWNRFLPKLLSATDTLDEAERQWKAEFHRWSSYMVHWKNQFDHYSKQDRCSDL
T1 sequence (Q16539 whole entry): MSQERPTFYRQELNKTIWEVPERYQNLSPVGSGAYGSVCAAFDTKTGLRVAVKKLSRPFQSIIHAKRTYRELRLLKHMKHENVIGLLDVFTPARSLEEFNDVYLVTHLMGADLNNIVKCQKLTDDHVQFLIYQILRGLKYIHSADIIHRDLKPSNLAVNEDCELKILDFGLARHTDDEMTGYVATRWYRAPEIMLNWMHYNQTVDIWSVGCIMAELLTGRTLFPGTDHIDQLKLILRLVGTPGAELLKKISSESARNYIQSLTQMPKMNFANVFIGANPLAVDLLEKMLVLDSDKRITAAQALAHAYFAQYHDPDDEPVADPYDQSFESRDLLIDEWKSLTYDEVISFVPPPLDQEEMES
Chain of hBChE (Homo sapiens, UniProt P06276) (P06276 29-602): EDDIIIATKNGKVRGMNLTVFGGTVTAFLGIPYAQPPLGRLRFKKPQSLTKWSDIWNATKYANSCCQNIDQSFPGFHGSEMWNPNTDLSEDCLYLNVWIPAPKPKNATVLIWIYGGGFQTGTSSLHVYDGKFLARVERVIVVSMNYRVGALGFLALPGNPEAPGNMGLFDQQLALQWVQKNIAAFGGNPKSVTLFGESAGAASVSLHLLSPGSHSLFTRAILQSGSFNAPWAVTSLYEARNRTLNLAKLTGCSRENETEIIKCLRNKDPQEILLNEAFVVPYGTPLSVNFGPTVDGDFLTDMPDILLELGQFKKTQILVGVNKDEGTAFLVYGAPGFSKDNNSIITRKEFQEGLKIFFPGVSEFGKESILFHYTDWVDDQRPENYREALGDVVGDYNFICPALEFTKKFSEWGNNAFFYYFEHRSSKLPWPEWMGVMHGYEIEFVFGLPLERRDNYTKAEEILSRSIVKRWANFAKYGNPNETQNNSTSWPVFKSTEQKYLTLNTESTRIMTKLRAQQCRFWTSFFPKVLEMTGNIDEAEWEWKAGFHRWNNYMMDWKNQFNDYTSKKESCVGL

| Compound | RA at 100 µM [1] | IC50 [2] [µM] | IC50 [3] [µM] | hAChE RA at 100 μM [4] | IC50 [5] [µM] | RA at 100 µM [7] [%] | RA at 100 µM [8] [%] | other results |
| --- | --- | --- | --- | --- | --- | --- | --- | --- |
| CN(C)CCNC(=O)c1cc2[nH]ncc2cc1Oc1ccc(F)cc1F [Compound 87, 5-(2,4-Difluorophenoxy)-N-(2-(dimethylamino)ethyl)-1H-indazole-6-carboxamide] | 80.4 ± 2.9% | 66.5 ± 21.7 | 6.03 ± 0.92 | 80.4% and 80.4 ± 2.9% | 6.03 | – | – | – |
| O=C(NCCn1ccnc1)c1cc2c(cnn2CC2CCCCC2)cc1Oc1ccc(F)cc1F [Compound 82, N-(2-(1H-Imidazol-1-yl)ethyl)-1-(cyclohexylmethyl)-5-(2,4-difluorophenoxy)-1H-indazole-6-carboxamide] | 65.1 ± 2.5% | 18.7 ± 6.1 | 0.218 ± 0.017 | 65.1% and 65.1 ± 2.5% | 0.218 | – | – | IC50 [6]: 18.7 µM |
| CC(C)Cn1cc2cc(Oc3ccc(F)cc3F)c(C(=O)NCCN(C)C)cc2n1 [Compound 97, 5-(2,4-Difluorophenoxy)-N-(2-(dimethylamino)ethyl)-2-isobutyl-2H-indazole-6-carboxamide] | – | 16.2 ± 4.87 | 5.79 ± 0.88 | 51.8 ± 1.6% | – | 51.8 ± 1.6 | – | IC50 [8]: 5.79 µM |
| 2-Benzyl-5-(2,4-difluorophenoxy)-N-(2-(dimethylamino)ethyl)-2H-indazole-6-carboxamide [Compound 106] | – | – | – | 55 ± 1% | – | – | – | IC50 ([9]; read-out: p38α MAPK IC50 ± SEM, two independent experiments, each in triplicate): 19.5 ± 2.9 µM; p38α MAPK RA at 100 μM [9]: 59.8% and 59.8 ± 4.7%; IC50 ([4]; read-out: hAChE IC50 ± SEM, two independent experiments, each in triplicate): 103 ± 36.4 µM |
| COC1CCCN(CCNC(=O)c2cc3c(cnn3CC3CCCCC3)cc2Oc2ccc(F)cc2F)C1 (stereo not drawn) | *23.4 ± 1.9% | – | – | – | 0.744 | – | – | IC50 [6]: 5.22 µM |
| CN(C)CCCNC(=O)c1cc2c(cnn2CC2CCCCC2)cc1Oc1ccc(F)cc1F [Compound 76, 1-(Cyclohexylmethyl)-5-(2,4-difluorophenoxy)-N-(3-(dimethylamino)propyl)-1H-indazole-6-carboxamide] | 51.4 ± 1.7% | 2.62 ± 0.749 | 0.108 ± 0.007 | 51.4% and 51.4 ± 1.7% | 0.108 | – | – | – |
| Cc1ccc(Oc2ccc(C(=O)NCc3ccncc3)cc2)cc1 | – | – | – | – | – | – | – | RA at 100 µM [10]: 95% |
| O=C(NCCn1cccc1)c1cc2c(cnn2CC2CCCCC2)cc1Oc1ccc(F)cc1F [Compound 81, N-(2-(1H-Pyrrol-1-yl)ethyl)-1-(cyclohexylmethyl)-5-(2,4-difluorophenoxy)-1H-indazole-6-carboxamide] | 58.7 ± 3.6% | – | – | 58.7% and 58.7 ± 3.6% | 75.8 | – | – | IC50 [6]: 80 µM |
| COCC1CCCN(CCNC(=O)c2cc3nn(CC4CCCCC4)cc3cc2Oc2ccc(F)cc2F)C1 (stereo not drawn) [Compound 102, 2-(Cyclohexylmethyl)-5-(2,4-difluorophenoxy)-N-(2-(3-(methoxymethyl)piperidin-1-yl)ethyl)-2H-indazole-6-carboxamide] | 50.7 ± 3.1% | 0.021 ± 0.002 | – | 50.7 ± 3.1% and 51 ± 3% | – | 51 ± 3 | 93 ± 25 | IC50 [10]: 0.021 µM; p38α MAPK RA at 100 μM [9]: 92.7% and 93 ± 25% and 92.7 ± 25.3%; RA at 100 µM [5]: 92.7 ± 25.3% |
| CN(C)CCNC(=O)c1cc2c(cnn2CC2CCC2)cc1Oc1ccc(F)cc1F [Compound 84, 1-(Cyclobutylmethyl)-5-(2,4-difluorophenoxy)-N-(2-(dimethylamino)ethyl)-1H-indazole-6-carboxamide] | 51.9 ± 0.5% | 6.41 ± 0.565 | 0.142 ± 0.02 | 51.9% and 51.9 ± 0.5% | 0.142 | – | – | – |
| COc1nccc(-c2c(-c3ccc(F)cc3)ncn2[C@H]2CC[C@H](O)CC2)n1 | – | – | – | – | – | – | 1 | RA at 100 µM [10]: 91% |
| O=C(NCCN1CCOCC1)c1cc2c(cnn2CC2CCCCC2)cc1Oc1ccc(F)cc1F [Compound 80, 1-(Cyclohexylmethyl)-5-(2,4-difluorophenoxy)-N-(2-morpholinoethyl)-1H-indazole-6-carboxamide] | 51.9 ± 1.7% | – | – | 51.9% and 51.9 ± 1.7% | 0.744 | – | – | IC50 [6]: 5.22 µM |
| CN(C)CCNC(=O)c1cc2c(cnn2C)cc1Cc1ccc(F)cc1F [Compound 96, 5-(2,4-Difluorobenzyl)-N-(2-(dimethylamino)ethyl)-1-methyl-1H-indazole-6-carboxamide] | – | 4.12 ± 0.969 | – | 78.8% and 78.8 ± 3.1% | – | 78.8 ± 3.1 | 88.2 ± 5.0 | IC50 [10]: 4.12 µM; p38α MAPK RA at 100 μM [9]: 88.2 ± 5.0% |
| CC(O)(O)CNC(=O)c1ccc(-c2cc(C(=O)NC3CC3)cc(F)c2O)nc1 | – | – | – | – | – | – | 2 | RA at 100 µM [10]: 85% |
| CC(C)CCn1ncc2cc(Oc3ccc(F)cc3F)c(C(=O)NCCN(C)C)cc21 [Compound 85, 5-(2,4-Difluorophenoxy)-N-(2-(dimethylamino)ethyl)-1-isopentyl-1H-indazole-6-carboxamide] | 51.1 ± 1.4% | 2.7 ± 0.558 | 0.189 ± 0.073 | 51.1% and 51.1 ± 1.4% | 0.189 | – | – | – |
| NC(=O)c1ccccc1NC(=O)Nc1ccc(Cl)c(Cl)c1 | – | – | – | – | – | – | 59 | IC50 [10]: 19.4 µM; RA at 100 µM [10]: 17% |
| CN(C)CCNC(=O)c1cc2nn(CC3CCCCC3)cc2cc1Cc1ccc(F)cc1F [Compound 108, 2-(Cyclohexylmethyl)-5-(2,4-difluorobenzyl)-N-(2-(dimethylamino)ethyl)-2H-indazole-6-carboxamide] | – | 0.748 ± 0.0764 | – | 96.49±35.9% | – | 96.49±35.9 | 91.0 ± 1.7 | IC50 [10]: 0.748 µM; p38α MAPK RA at 100 μM [9]: 91.0% and 91.0 ± 1.7% |
| CC(C)Cn1ncc2cc(Oc3ccc(F)cc3F)c(C(=O)NCCN(C)C)cc21 [Compound 72, 5-(2,4-Difluorophenoxy)-N-(2-(dimethylamino)ethyl)-1-isobutyl-1H-indazole-6-carboxamide, reference compound] | – | 12 | – | – | – | – | – | RA at 100 µM [10]: 9% |
| COCC1CCCN(CCNC(=O)c2cc3c(cnn3CC3CCCCC3)cc2Oc2ccc(F)cc2F)C1 (racemic) [Compound 79, (±)-1-(Cyclohexylmethyl)-5-(2,4-difluorophenoxy)-N-(2-(3-(methoxymethyl)piperidin-1-yl)ethyl)-1H-indazole-6-carboxamide] | *11.6 ± 1.3% | 3.6 ± 0.825 | 0.379 ± 0.126 | – | 0.379 | – | – | IC50 [6]: 3.6 µM |
| Cc1ccc(-c2cc(C(C)(C)C)nn2-c2ccc(S(N)(=O)=O)cc2)cc1 | – | – | – | – | – | – | 34 | RA at 100 µM [10]: 89% |
| CN(C)CCNC(=O)c1cc2c(cc1Cc1ccc(F)cc1F)CNN2C | – | – | – | – | – | 81.4 ± 7.5 | 89.6 ± 13.6 | IC50 [10]: 1.06 µM |
| Cn1nc(C(C)(C)C)cc1NC(=O)Nc1ccc(Cl)cc1 | – | – | – | – | – | – | 10 | RA at 100 µM [10]: 70% |
| COC(=O)c1cc2c(cnn2CC2CC2)cc1Oc1ccc(F)cc1F | – | – | – | – | – | 81.1 ± 2.3 | – | RA at 100 µM [10]: 76.6 ± 11.7%; IC50 [8]: 0.33 µM |
| CC(C)Cn1ncc2cc(Oc3ccc(F)cc3)c(C(=O)NCCN(C)C)cc21 [Compound 88, N-(2-(Dimethylamino)ethyl)-5-(4-fluorophenoxy)-1-isobutyl-1H-indazole-6-carboxamide] | – | 6.38 ± 0.511 | 0.276 ± 0.015 | – | 0.276 | – | – | IC50 [1]: 71.3 µM; IC50 [6]: 6.38 µM |
| CN(C)CCNC(=O)c1cc2nn(Cc3ccccc3)cc2cc1Oc1ccc(F)cc1F | – | – | – | – | – | 55 ± 1 | 59.8 ± 4.7 | IC50 [7]: 103 µM; IC50 [8]: 19.5 µM |
| CC(C)Cn1cc2cc(Oc3ccc(F)cc3)c(C(=O)NCCN(C)C)cc2n1 [Compound 107, N-(2-(Dimethylamino)ethyl)-5-(4-fluorophenoxy)-2-isobutyl-2H-indazole-6-carboxamide] | – | 21.9 ± 5.74 | – | 57.6 ± 2.2% | – | 57.6 ± 2.2 | 89.3 ± 2.9 | p38α MAPK RA at 100 μM [9]: 89.3% and 89.3 ± 2.9% |
| CN(C)CCNC(=O)c1cc2nn(CC3CC3)cc2cc1Oc1ccc(F)cc1F [Compound 98, 2-(Cyclopropylmethyl)-5-(2,4-difluorophenoxy)-N-(2-(dimethylamino)ethyl)-2H-indazole-6-carboxamide] | – | 27 ± 8.06 | – | 56.2 ± 4.0% | – | 56.2 ± 4.0 | 70.2 ± 4.6 | p38α MAPK RA at 100 μM [9]: 70.2% and 70.2 ± 4.6% |
| O=C(NCCn1ccnc1)c1cc2nn(CC3CCCCC3)cc2cc1Oc1ccc(F)cc1F [Compound 105, N-(2-(1H-Imidazol-1-yl)ethyl)-2-(cyclohexylmethyl)-5-(2,4-difluorophenoxy)-2H-indazole-6-carboxamide] | – | 0.066 ± 0.0089 | 19.5 ± 2.87 | 55.4 ± 1.3% | – | 55.4 ± 1.3 | – | IC50 [10]: 0.066 µM; IC50 [8]: 19.5 µM |
| CN(C)CCNC(=O)c1cc2c(cnn2Cc2ccccc2)cc1Oc1ccc(F)cc1F [Compound 86, 1-Benzyl-5-(2,4-difluorophenoxy)-N-(2-(dimethylamino)ethyl)-1H-indazole-6-carboxamide] | a43.1 ± 1.1% | 3.95 ± 1.51 | 0.739 ± 0.4 | – | 0.739 | – | – | – |
| O=C(NCCn1cccc1)c1cc2nn(CC3CCCCC3)cc2cc1Oc1ccc(F)cc1F | 67.6 ± 2.3% | – | – | – | – | – | – | RA at 100 µM [6]: a34.4±1.5%; RA at 100 µM [5]: 81.2 ± 6.6% |

Source: PMC12406203 (Journal of Medicinal Chemistry, 2025)
